# Where “and” joins values, the source holds several entries; their conditions need not be identical. Equal entries are not always repeated. Where two headings read alike, the source gives them in different places.
# Key:
# [1] = tested on: Salmonella typhimurium TA97a; details: TA 97a, no S9
# Procedure: (§1) In the preincubation experiment, test compounds and mutagen, each having a volume of 0.1 mL of varying concentrations, were preincubated at 37°C for 30 min and then 0.1 mL of 1 × 10^7 CFU/mL density of the bacterial culture was added, followed by the addition of 2.5 mL of top agar at 45°C (containing 0.5% NaCl and 0.6% agar) supplemented with 0.5 mM histidine-biotin. […] The combined solutions were vortexed and poured onto minimal glucose plates (40% glucose solution and Vogel Bonner medium). The plates were incubated at 37°C for 48 h and the numbers of histidine-independent revertants colonies were scored.
# (§2) Survival of the bacteria was routinely monitored for each experiment. Parallel controls were run with compounds alone at all concentrations to test the possible toxicity. The concentrations of the test samples for investigating the antimutagenicity were 50, 100, 200, and 500 μM. […] All the test samples and mutagens were dissolved in DMSO (final conc., 0.01%). […] Plates were set up in triplicate for each concentration and the entire experiment was repeated three times. Inhibition of mutagenicity was expressed as percentage decrease of reverse mutation and calculated as (1) Percent inhibition=[(a−b)/(a−c)]×100, where a = number of histidine revertants induced by mutagen, b = number of histidine revertants induced by mutagen in the presence of test compound, and c = number of revertants induced in negative control.
# [2] = tested on: Salmonella typhimurium TA98; details: TA 98, no S9
# Procedure: as §1, §2
# [3] = tested on: Salmonella typhimurium TA100; details: TA 100, no S9
# Procedure: as §1, §2
# [4] = tested on: Salmonella typhimurium TA102; details: TA 102, no S9
# Procedure: as §1, §2
# [5] = positive control MMS 1.5 μg (Table 8)
SMILES,Number of His+ revertants colonies/plate ([1]; positive control MMS 1.0 μg),"Number of His+ revertants colonies/plate [1, 5] [colonies/plate]",Number of His+ revertants colonies/plate ([2]; positive control MMS 1.0 μg) [colonies/plate],"Number of His+ revertants colonies/plate [2, 5] [colonies/plate]",Number of His+ revertants colonies/plate ([3]; positive control MMS 1.0 μg) [colonies/plate],"Number of His+ revertants colonies/plate [3, 5] [colonies/plate]",Number of His+ revertants colonies/plate ([4]; positive control MMS 1.0 μg) [colonies/plate],"Number of His+ revertants colonies/plate [4, 5] [colonies/plate]",Number of His+ revertants colonies/plate ([1]; positive control NaN3 1.5 μg) [colonies/plate],Number of His+ revertants colonies/plate ([2]; positive control NaN3 1.5 μg) [colonies/plate],Number of His+ revertants colonies/plate ([3]; positive control NaN3 1.5 μg) [colonies/plate],Number of His+ revertants colonies/plate ([4]; positive control NaN3 1.5 μg)
"COS(C)(=O)=O [MMS, Methyl methanesulfonate, reference compound]",449 colonies/plate and 449.7 ± 7.2 colonies/plate,449.7 ± 7.2,53.7 ± 1.5,53.7 ± 1.5,963.0 ± 11.4,963.0 ± 11.4,1237.0 ± 14.5,1237.0 ± 14.5,,,,
"[N-]=[N+]=[N-].[Na+] [NaN3, Sodium azide, reference compound]",,,,,,,,,256.0 ± 11.7,52.3 ± 1.8,361.3 ± 11.0,370.0 ± 9.0 colonies/plate and 355.0 ± 15.5 colonies/plate

# Source: paper PMC4052943 (BioMed Research International, 2014)
